What was measured:
Test in all cases: relative viability (nuclei count vs DMSO), 5 days (fraction); higher = more cells survive
[1] = compound: CCC1=CN=CN=C1N2CCN(CC2)CC3=NC4=C(N3)C=C(C=C4)C(F)(F)F + C[C@]1(O)C[C@@H](c2nc(-c3ccc4ccc(-c5ccccc5)nc4c3)c3c(N)nccn32)C1 [Linsitinib] (partner 1 µM)
In short: (§1)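 Medians of duplicate plates are given as relative viability. That measure is the nuclei count in treated wells divided by the count in vehicle wells. Counts were taken on 4× images of lung cancer cell lines in 1536-well plates, 5 days after pin-tool dosing the day after seeding with one drug alone or a fixed anchor-drug dose plus five library-drug doses (not always all listed) in √10 steps.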

[2] = compound: CCn1c(-c2nonc2N)nc2cnc(Oc3cccc(NC(=O)c4ccc(OCCN5CCOCC5)cc4)c3)cc21 + CC1(C)CCC(c2ccc(Cl)cc2)=C(CN2CCN(c3ccc(C(=O)NS(=O)(=O)c4ccc(N[C@H](CCN5CCOCC5)CSc5ccccc5)c(S(=O)(=O)C(F)(F)F)c4)cc3)CC2)C1 [Navitoclax] (partner 0.5 µM)
In short: as §1

[3] = compound: N=C1NC(=O)/C(=C/c2ccc(O)cc2)S1 [Mirin] + COc1cc2c(Oc3ccc(NC(=O)C4(C(=O)Nc5ccc(F)cc5)CC4)cc3F)ccnc2cc1OCCCN1CCOCC1 [Foretinib] (partner 0.25 µM)
In short: as §1

[4] = compound: N=C1NC(=O)/C(=C/c2ccc(O)cc2)S1 [Mirin] + Cc1nc(NC(=O)N2CCC[C@H]2C(N)=O)sc1-c1ccnc(C(C)(C)C(F)(F)F)c1 [Alpelisib] (partner 2 µM)
In short: as §1

Cell Line: NCI-H460
- relative viability ([1]; first compound 0.04 µM): 0.891
- relative viability ([1]; first compound 0.1265 µM): 0.683
- relative viability ([1]; first compound 0.4 µM): 0.828
- relative viability ([1]; first compound 1.265 µM): 0.716
- relative viability ([1]; first compound 4 µM): 0.718
- relative viability ([2]; first compound 0.04 µM): 1.07
- relative viability ([2]; first compound 0.1265 µM): 1.01
- relative viability ([2]; first compound 0.4 µM): 1.13
- relative viability ([2]; first compound 1.265 µM): 0.393
- relative viability ([2]; first compound 4 µM): 0.26
- relative viability ([3]; first compound 0.25 µM): 1.08
- relative viability ([3]; first compound 0.7906 µM): 1.04
- relative viability ([3]; first compound 2.5 µM): 0.999
- relative viability ([3]; first compound 7.906 µM): 1.04
- relative viability ([3]; first compound 25 µM): 1.08
- relative viability ([4]; first compound 0.25 µM): 0.511
- relative viability ([4]; first compound 0.7906 µM): 0.424
- relative viability ([4]; first compound 2.5 µM): 0.559
- relative viability ([4]; first compound 7.906 µM): 0.515
- relative viability ([4]; first compound 25 µM): 0.236

Cell Line: NCI-H1915
- relative viability ([1]; first compound 0.04 µM): 1.15
- relative viability ([1]; first compound 0.1265 µM): 1.09
- relative viability ([1]; first compound 0.4 µM): 1.09
- relative viability ([1]; first compound 1.265 µM): 1.04
- relative viability ([1]; first compound 4 µM): 1.12
- relative viability ([2]; first compound 0.04 µM): 0.829
- relative viability ([2]; first compound 0.1265 µM): 0.797
- relative viability ([2]; first compound 0.4 µM): 0.764
- relative viability ([2]; first compound 1.265 µM): 0.575
- relative viability ([2]; first compound 4 µM): 0.762
- relative viability ([3]; first compound 0.25 µM): 1.06
- relative viability ([3]; first compound 2.5 µM): 1.12
- relative viability ([3]; first compound 7.906 µM): 0.948
- relative viability ([3]; first compound 25 µM): 0.975
- relative viability ([4]; first compound 0.25 µM): 1.04
- relative viability ([4]; first compound 2.5 µM): 1.09
- relative viability ([4]; first compound 7.906 µM): 0.948
- relative viability ([4]; first compound 25 µM): 1.08

Cell Line: NCI-H1299
- relative viability ([1]; first compound 0.04 µM): 1.05
- relative viability ([1]; first compound 0.1265 µM): 0.935
- relative viability ([1]; first compound 0.4 µM): 0.979
- relative viability ([1]; first compound 1.265 µM): 0.968
- relative viability ([1]; first compound 4 µM): 0.955
- relative viability ([2]; first compound 0.04 µM): 1.02
- relative viability ([2]; first compound 0.1265 µM): 1.01
- relative viability ([2]; first compound 0.4 µM): 0.887
- relative viability ([2]; first compound 1.265 µM): 0.885
- relative viability ([2]; first compound 4 µM): 0.803
- relative viability ([3]; first compound 0.25 µM): 1.1
- relative viability ([3]; first compound 0.7906 µM): 1.15
- relative viability ([3]; first compound 2.5 µM): 1.07
- relative viability ([3]; first compound 7.906 µM): 1.12
- relative viability ([3]; first compound 25 µM): 1.24
- relative viability ([4]; first compound 0.25 µM): 1.01
- relative viability ([4]; first compound 0.7906 µM): 1.16
- relative viability ([4]; first compound 2.5 µM): 1.06
- relative viability ([4]; first compound 7.906 µM): 0.622
- relative viability ([4]; first compound 25 µM): 1.21

Cell Line: NCI-H1734
- relative viability ([1]; first compound 0.04 µM): 0.971
- relative viability ([1]; first compound 0.1265 µM): 0.836
- relative viability ([1]; first compound 0.4 µM): 0.946
- relative viability ([1]; first compound 4 µM): 0.877
- relative viability ([2]; first compound 0.04 µM): 1.11
- relative viability ([2]; first compound 0.1265 µM): 0.81
- relative viability ([2]; first compound 0.4 µM): 0.684
- relative viability ([2]; first compound 1.265 µM): 0.564
- relative viability ([2]; first compound 4 µM): 0.345
- relative viability ([3]; first compound 0.25 µM): 0.847
- relative viability ([3]; first compound 0.7906 µM): 0.739
- relative viability ([3]; first compound 2.5 µM): 0.788
- relative viability ([3]; first compound 7.906 µM): 0.849
- relative viability ([3]; first compound 25 µM): 0.702
- relative viability ([4]; first compound 0.25 µM): 0.67
- relative viability ([4]; first compound 0.7906 µM): 0.651
- relative viability ([4]; first compound 2.5 µM): 0.684
- relative viability ([4]; first compound 7.906 µM): 0.656
- relative viability ([4]; first compound 25 µM): 0.584

Cell Line: NCI-H1993
- relative viability ([1]; first compound 0.04 µM): 0.81
- relative viability ([1]; first compound 0.1265 µM): 0.799
- relative viability ([1]; first compound 0.4 µM): 0.753
- relative viability ([1]; first compound 1.265 µM): 0.72
- relative viability ([1]; first compound 4 µM): 0.838
- relative viability ([2]; first compound 0.04 µM): 0.795
- relative viability ([2]; first compound 0.1265 µM): 0.941
- relative viability ([2]; first compound 1.265 µM): 0.902
- relative viability ([2]; first compound 4 µM): 0.787
- relative viability ([3]; first compound 0.25 µM): 0.716
- relative viability ([3]; first compound 2.5 µM): 0.821
- relative viability ([3]; first compound 7.906 µM): 0.76
- relative viability ([3]; first compound 25 µM): 0.824
- relative viability ([4]; first compound 0.25 µM): 0.663
- relative viability ([4]; first compound 0.7906 µM): 0.779
- relative viability ([4]; first compound 2.5 µM): 0.681
- relative viability ([4]; first compound 7.906 µM): 0.65
- relative viability ([4]; first compound 25 µM): 0.674

Cell Line: LK-2
- relative viability ([1]; first compound 0.04 µM): 0.739
- relative viability ([1]; first compound 0.1265 µM): 0.515
- relative viability ([1]; first compound 0.4 µM): 0.588
- relative viability ([1]; first compound 1.265 µM): 0.319
- relative viability ([1]; first compound 4 µM): 0.598
- relative viability ([2]; first compound 0.04 µM): 0.989
- relative viability ([2]; first compound 0.1265 µM): 0.928
- relative viability ([2]; first compound 0.4 µM): 0.467
- relative viability ([2]; first compound 1.265 µM): 0.349
- relative viability ([2]; first compound 4 µM): 0.686
- relative viability ([3]; first compound 0.25 µM): 1.24
- relative viability ([3]; first compound 2.5 µM): 1.02
- relative viability ([3]; first compound 7.906 µM): 0.977
- relative viability ([3]; first compound 25 µM): 0.586
- relative viability ([4]; first compound 0.25 µM): 0.899
- relative viability ([4]; first compound 2.5 µM): 1.1
- relative viability ([4]; first compound 7.906 µM): 0.743
- relative viability ([4]; first compound 25 µM): 0.397

Cell Line: HCC-78
- relative viability ([1]; first compound 0.04 µM): 0.38
- relative viability ([1]; first compound 0.1265 µM): 0.584
- relative viability ([1]; first compound 0.4 µM): 0.478
- relative viability ([1]; first compound 1.265 µM): 0.464
- relative viability ([1]; first compound 4 µM): 0.335
- relative viability ([2]; first compound 0.04 µM): 1.05
- relative viability ([2]; first compound 0.1265 µM): 0.782
- relative viability ([2]; first compound 0.4 µM): 0.848
- relative viability ([2]; first compound 1.265 µM): 0.878
- relative viability ([2]; first compound 4 µM): 0.926
- relative viability ([3]; first compound 0.25 µM): 0.538
- relative viability ([3]; first compound 0.7906 µM): 0.636
- relative viability ([3]; first compound 2.5 µM): 0.535
- relative viability ([3]; first compound 7.906 µM): 0.615
- relative viability ([3]; first compound 25 µM): 0.584
- relative viability ([4]; first compound 0.25 µM): 0.389
- relative viability ([4]; first compound 0.7906 µM): 0.393
- relative viability ([4]; first compound 2.5 µM): 0.366
- relative viability ([4]; first compound 7.906 µM): 0.291
- relative viability ([4]; first compound 25 µM): 0.298

Cell Line: NCI-H3122
- relative viability ([1]; first compound 0.04 µM): 1.11
- relative viability ([1]; first compound 0.1265 µM): 1.11
- relative viability ([1]; first compound 0.4 µM): 1.01
- relative viability ([1]; first compound 1.265 µM): 1.08
- relative viability ([1]; first compound 4 µM): 0.93
- relative viability ([2]; first compound 0.04 µM): 1.02
- relative viability ([2]; first compound 0.1265 µM): 1.03
- relative viability ([2]; first compound 0.4 µM): 1.05
- relative viability ([2]; first compound 1.265 µM): 0.974
- relative viability ([2]; first compound 4 µM): 0.979
- relative viability ([3]; first compound 0.25 µM): 0.919
- relative viability ([3]; first compound 0.7906 µM): 0.906
- relative viability ([3]; first compound 2.5 µM): 0.934
- relative viability ([3]; first compound 7.906 µM): 1.08
- relative viability ([3]; first compound 25 µM): 1.09
- relative viability ([4]; first compound 0.25 µM): 0.715
- relative viability ([4]; first compound 0.7906 µM): 0.823
- relative viability ([4]; first compound 2.5 µM): 0.729
- relative viability ([4]; first compound 7.906 µM): 0.923
- relative viability ([4]; first compound 25 µM): 0.821

Reference: the supplement of paper PMC10307832
